# Data as given in patent publication US11224565B2, “N-acyldipeptide derivatives and their uses” (NeoStrata Company, Inc., priority 2011, dated 2022).
# Several values for one entry are separate records, joined by “and”; a condition that tells them apart may be missing. Equal values may be shown once. Peptide text beside a SMILES is read from it.
# What was measured:
# Format in all cases: in vivo, human
# stretch marks = assay: Topical treatment of stretch marks; settings: twice daily, four weeks; 0.5% (w/w) N-Ac-L-Val-L-Ala-NH2 cream on one lesion, 0.5% (w/v) N-Ac-L-Tyr-L-Tyr-NH2 in WEP442 pH 6.7 on the other
# Text: Stretch marks, known as striae, are visible linear scars caused by changes in collagen fibers and over stretching of the skin. Stretch marks are quite common in most adult women, and they readily develop at puberty or during pregnancy. They are also very common in obese people with sudden loss of weight. At present, there is no cure or effective treatment.
# A subject, having lost a total of about 60 pounds from overweight over the last 10 years, developed multiple lesions of stretch marks over the body. The subject selected two separate lesions of stretch marks, and topically applied twice daily 0.5% (w/w) N—Ac-L-Val-L-Ala-NH2 cream (Example 2) on one lesion and 0.5% (w/v) N—Ac-L-Tyr-L-Tyr-NH2 solution in WEP442, pH 6.7 (Example 5) on the other lesion with untreated lesions of stretch marks as a control.
# At the end of four weeks, the fine lines of stretch marks started to disappear, and deeper lines became less deep. The treated lesions had approximately 25% improvement as judged by clinical evaluation.
# [1] = system: fungal infections of two toe nails; assay: Topical treatment of fungal infections of toe nails; settings: twice daily, after several weeks; 0.5% (w/v) N-Ac-L-Tyr-L-Tyr-NH2 in WEP442 pH 6.7 on one nail, 0.5% (w/v) N-Ac-L-Tyr-L-Tyr-NHNHAc in WEP442 pH 5.5 on another
# Text: A subject had fungal infections of two toe nails for many years. Topical treatments with clotrimazole and salicylic acid with or without glycolic acid had not been successful, as shown by the persistent appearance of white and sandy nail plates. The subject topically applied twice daily to one infected nail plate, 0.5% (w/v) N—Ac-L-Tyr-L-Tyr-NH2 in WEP442, pH 6.7 (Example 5), and to another infected nail plate, 0.5% (w/v) N—Ac-L-Tyr-L-Tyr-NHNHAc in WEP442, pH 5.5 (Example 5) for several months. […] Continued topical applications of the formulations should eradicate the nail infections, and the toe nails should start to grow normally.
# forearm skin = assay: Skin thickness of forearm by micrometer calipers after topical application; settings: for appearance of treated left forearm at end of treatment: 1-3% (w/v) in WEP442 topically twice daily for 1-6 weeks as in the example, vehicle forearm still loose, thin and wrinkled; for increase in skin thickness of treated left forearm: 3% (w/v) in WEP442 topically twice daily, vehicle forearm no change
# Procedure: In one of the studies related to skin changes associated with aging, skin thickness was measured by micrometer calipers as follows. The skin was grasped with a 2×6 cm metal hinge; the internal faces of which were coated with emery cloth to prevent slippage, and manually squeezed to threshold subject discomfort. Combined thickness of two whole-skin layers including thickness of the two hinge leaves was measured with micrometer calipers. Thickness of the two hinge leaves was subtracted to determine the actual thickness of two whole-skin layers. Triplicate measurements on treated sites were done and an average number was used for calculation of the skin thickness. In other studies, test sites of skin 17 mm in diameter were used, the circular sites were marked with permanent ink. Intervening control sites were also 17 mm in diameter. Thickness of skin of all sites was measured directly by means of an electronic digital caliper. In this instance the jaws of the caliper were opened to 17 mm, applied with pressure to the skin sites and then closed to firm tightness. Thickness of skin was then read off the screen of the calipers. Measurements of all sites were made in triplicates.
# insect bites = assay: Topical application to insect bite lesions (itch, erythema, inflammation)
# Procedure: A subject, having intensive itch and erythema on their left arm from insect bites, topically applied 10% (w/w) N—Ac-L-Leu-Gly-NH2 cream as formulated in Example 3 on the involved lesions.
# A subject had multiple lesions of insect bites (mosquitoes) over the face and arms with itch and inflammatory lesions of more than 1 cm in size. For testing purposes, the subject divided the lesions into three groups: the first group was treated with vehicle control, the second and third groups were treated with active compositions. The subject topically applied twice daily 0.5% (w/v) N—Ac-L-Val-L-Ala-NH2 solution in WEP442, pH 5.9 on the lesions of the second group, and 0.5% (w/v) N—Ac-L-Tyr-L-Tyr-NH2 solution in WEP442, pH 6.7 (Example 5) on the lesions of the third group. […] The lesions in the second and third groups also started to improve over the next few days. At the end of three days, while there was no discernible change in the lesions treated with vehicle control in the first group, the lesions in the second and third groups had 90-100% improvement with nearly complete disappearance of inflammatory lesions.
# A subject had multiple lesions of chigger bites (grass mites) over the legs with intensive itch and red inflammatory lesions. The subject topically applied twice daily 0.5% (w/v) N—Ac-L-Val-L-Ala-NH2 solution in WEP442, pH 6.7 (Example 5) on the lesions. […] The lesions on the legs had 100% improvement as judged by clinical evaluation.
# In another embodiment, the volunteer subject topically applied the test compositions containing N-acyldipeptide derivatives of the present invention on involved skin or lesions once or twice daily for several weeks or until the involved lesions completely cleared and clinically changed to normal skin. As a control study, the subject also topically applied a vehicle control composition on the involved skin or lesions twice daily for the same period.
# [2] = system: pain and inflammation of joints and muscles; assay: Topical administration for pain and inflammation of sprained leg, shoulder or muscles
# Procedure: A typical example of a topical administration for systemic therapeutic effects was carried out as follows. A subject, having sprained their left leg near the knee with inflammation for several weeks had severe pain each time walking. Massage therapy and conventional treatments provided only a temporary relief. The subject topically applied and rubbed 0.4% (w/v) N—Ac-L-Val-L-Ala-NH2 in WEP442, pH 5.8 as prepared in Example 5 onto the left thigh and calf sites of skin for 30 seconds at night.
# The subject topically applied twice daily 0.5% (w/v) N—Ac-L-Tyr-L-Tyr-NH2 in WEP442 solution, pH 6.7 as prepared in Example 5. […] At the end of 5 days, the right shoulder had 90% improvement as determined by clinical evaluation.
# The subject topically applied twice daily 0.5% (w/v) N—Ac-L-Val-L-Ala-NH2 in WEP442 solution, pH 6.7 as prepared in Example 5 to the affected area of skin. The pain diminished with less inflammation over the next day.
# In yet another embodiment, the volunteer subject topically applied once or twice daily the test compositions containing N-acyldipeptide derivatives of the present invention on the skin site above arthritic joints or painful muscles to provide therapeutic effects for the systemic disorders via topical administration.
# [3] = mosquito bites face and arms, twice daily, 0.5% (w/v) N-Ac-L-Val-L-Ala-NH2 in WEP442 pH 5.9 (second group), 0.5% (w/v) N-Ac-L-Tyr-L-Tyr-NH2 in WEP442 pH 6.7 (third group)
Compound,improvement of treated stretch mark lesions as judged by clinical evaluation (stretch marks),white and sandy appearance of infected nail plates [1],appearance of treated left forearm at end of treatment (forearm skin),increase in skin thickness of treated left forearm (forearm skin; after 2 weeks),increase in skin thickness of treated left forearm (forearm skin; after 3 weeks) [%],increase in skin thickness of treated left forearm (forearm skin; after 4 weeks),itch after topical application (insect bites; [3]),"pain of sprained right shoulder ([2]; 0.5% (w/v) in WEP442 pH 6.7 topically twice daily, after three days)","improvement of right shoulder by clinical evaluation ([2]; 0.5% (w/v) in WEP442 pH 6.7 topically twice daily, end of 5 days) [%]",increase in skin thickness of treated left forearm (forearm skin; after 6 weeks) [%],increase in skin thickness of treated left forearm (forearm skin; after one week) [%],"itch after topical application (insect bites; 0.5% (w/v) in WEP442 pH 6.7 twice daily, chigger bites on legs)","improvement of lesions as judged by clinical evaluation (insect bites; 0.5% (w/v) in WEP442 pH 6.7 twice daily, chigger bites on legs, end of five days) [%]","pain on walking ([2]; 0.4% (w/v) in WEP442 pH 5.8 rubbed onto left thigh and calf at night, sprained leg, next morning)","improvement of left leg by clinical evaluation ([2]; 0.4% (w/v) in WEP442 pH 5.8 rubbed onto left thigh and calf for 30 seconds at night, sprained leg, next morning)","muscle pain and inflammation in both arms ([2]; 0.5% (w/v) in WEP442 pH 6.7 topically twice daily, end of five days)","improvement of arms by clinical evaluation ([2]; 0.5% (w/v) in WEP442 pH 6.7 topically twice daily, muscle pain, end of five days)"
CC(=O)N[C@@H](Cc1ccc(O)cc1)C(=O)N[C@@H](Cc1ccc(O)cc1)C(N)=O [N-Ac-L-Tyr-L-Tyr-NH2] (Ac-Tyr-Tyr-NH2),approximately 25%,started to change gradually,"more firm, smooth, plump, and less wrinkled when lifted",13% and 19%,14,17% and 21%,stopped completely within a few minutes,disappeared completely,90,–,–,–,–,–,–,–,–
CC(=O)NNC(=O)[C@H](Cc1ccc(O)cc1)NC(=O)[C@H](Cc1ccc(O)cc1)NC(C)=O [N-Ac-L-Tyr-L-Tyr-NHNHAc],–,started to change gradually,"more firm, smooth, plump, and less wrinkled when lifted",7%,32,–,–,–,–,23,21,–,–,–,–,–,–
CC(=O)N[C@H](C(=O)N[C@@H](C)C(N)=O)C(C)C [N-Ac-L-Val-L-Ala-NH2] (Ac-Val-Ala-NH2),approximately 25%,–,–,–,–,–,stopped completely within a few minutes,–,–,–,–,stopped within a few minutes,100,could walk slowly without feeling any pain,approximately 75%,disappeared completely,95%-100%
